Earlier results in patent US9913833B2, “Methods of treating developmental disorders using pipradrol” (Ovid Therapeutics Inc., priority 2015, dated 2018).

Tested on: depression
Conditions: published study on 111 individuals with depression

For `OC(c1ccccc1)(c1ccccc1)C1CCCCN1` (stereo not shown) [pipradrol], the “efficacy in depression compared with placebo” value is listed as “not superior to placebo”.
